# Experimental data as given in PubChem BioAssay AID2060897 (Molecular Pharmacology Branch, DTP, NCI, 2025).
# Test system: 966289-007-R4-J1-PDC complex spheroid viability
# Experiment: Anticancer human tumor 966289-007-R4-J1-PDC patient-derived pancreatic adenocarcinoma cell line growth inhibition [RAS]
# Details: for viability, T/C: stronger effect = lower value
# In short: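 Multi-cell-type spheroids: tumor cells plus HUVEC endothelial cells and mesenchymal stem cells. RAS-pathway inhibitors were combined with targeted agents, each dosed in half-log steps down from clinical Cmax, or from 10 microM when Cmax was unknown.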
# 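Note: spheroids exposed to agents for one week before readout.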
# 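Throughout, for viability, T/C: percent viability relative to DMSO vehicle control wells as 100%.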
smiles,measurement,setting,value
CC(=O)OC12COC1CC(O)C1(C)C(=O)C(O)C3=C(C)C(OC(=O)C(O)C(NC(=O)OC(C)(C)C)c4ccccc4)CC(O)(C(OC(=O)c4ccccc4)C21)C3(C)C (stereo not drawn) + C#Cc1c(F)ccc2cc(O)cc(-c3ncc4c(N5CC6CCC(C5)N6)nc(OCC56CCCN5CC(F)C6)nc4c3F)c12,IC50,"curve of first compound, second compound 0.0316 µM",< 31.6 nM
same,IC50,"curve of first compound, second compound 0.1 µM",< 31.6 nM
same,IC50,"curve of first compound, second compound 0.316 µM",< 31.6 nM
same,IC50,"curve of first compound, second compound 1 µM",< 31.6 nM
same,IC50,"curve of first compound, second compound 3.16 µM",< 31.6 nM
same,IC50,"curve of first compound, second compound 10 µM",< 31.6 nM
same,"viability, T/C","second compound 0.0316 µM, first compound 0.0316 µM",9.75%
same,"viability, T/C","second compound 0.0316 µM, first compound 0.1 µM",17.9%
same,"viability, T/C","second compound 0.0316 µM, first compound 0.316 µM",20.4%
same,"viability, T/C","second compound 0.0316 µM, first compound 1 µM",25.6%
same,"viability, T/C","second compound 0.0316 µM, first compound 3.16 µM",50.5%
same,"viability, T/C","second compound 0.0316 µM, first compound 10 µM",69.9%
same,"viability, T/C","second compound 0.1 µM, first compound 0.0316 µM",10.9%
same,"viability, T/C","second compound 0.1 µM, first compound 0.1 µM",17.9%
same,"viability, T/C","second compound 0.1 µM, first compound 0.316 µM",19.7%
same,"viability, T/C","second compound 0.1 µM, first compound 1 µM",24.3%
same,"viability, T/C","second compound 0.1 µM, first compound 3.16 µM",36.3%
same,"viability, T/C","second compound 0.1 µM, first compound 10 µM",70.3%
same,"viability, T/C","second compound 0.316 µM, first compound 0.0316 µM",10.4%
same,"viability, T/C","second compound 0.316 µM, first compound 0.1 µM",19.1%
same,"viability, T/C","second compound 0.316 µM, first compound 0.316 µM",19.3%
same,"viability, T/C","second compound 0.316 µM, first compound 1 µM",26%
same,"viability, T/C","second compound 0.316 µM, first compound 3.16 µM",49.9%
same,"viability, T/C","second compound 0.316 µM, first compound 10 µM",68.4%
same,"viability, T/C","second compound 1 µM, first compound 0.0316 µM",9.72%
same,"viability, T/C","second compound 1 µM, first compound 0.1 µM",18.3%
same,"viability, T/C","second compound 1 µM, first compound 0.316 µM",21.2%
same,"viability, T/C","second compound 1 µM, first compound 1 µM",31.8%
same,"viability, T/C","second compound 1 µM, first compound 3.16 µM",44.9%
same,"viability, T/C","second compound 1 µM, first compound 10 µM",71.8%
same,"viability, T/C","second compound 3.16 µM, first compound 0.0316 µM",10.6%
same,"viability, T/C","second compound 3.16 µM, first compound 0.1 µM",20.9%
same,"viability, T/C","second compound 3.16 µM, first compound 0.316 µM",25%
same,"viability, T/C","second compound 3.16 µM, first compound 1 µM",31.7%
same,"viability, T/C","second compound 3.16 µM, first compound 3.16 µM",44.6%
same,"viability, T/C","second compound 3.16 µM, first compound 10 µM",83.2%
same,"viability, T/C","second compound 10 µM, first compound 0.0316 µM",10.5%
same,"viability, T/C","second compound 10 µM, first compound 0.1 µM",16.6%
same,"viability, T/C","second compound 10 µM, first compound 0.316 µM",17.8%
same,"viability, T/C","second compound 10 µM, first compound 1 µM",27.1%
same,"viability, T/C","second compound 10 µM, first compound 3.16 µM",42.6%
same,"viability, T/C","second compound 10 µM, first compound 10 µM",53.9%
O=C(c1ccc(F)c(F)c1Nc1ccc(I)cc1F)N1CC(O)([C@@H]2CCCCN2)C1,"viability, T/C",compound 0.00316 µM,90.5% [middle of 4 runs]
same,"viability, T/C",compound 0.01 µM,97.5% [middle of 4 runs]
same,"viability, T/C",compound 0.0316 µM,90.4% [middle of 4 runs]
same,"viability, T/C",compound 0.1 µM,75.8% [middle of 4 runs]
same,"viability, T/C",compound 0.316 µM,68.9% [middle of 4 runs]
CCc1c2c(nc3ccc(O)cc13)-c1cc3c(c(=O)n1C2)COC(=O)[C@]3(O)CC,"viability, T/C",compound 0.003 µM,2.73% [middle of 4 runs]
same,"viability, T/C",compound 0.00949 µM,1.18% [middle of 4 runs]
same,"viability, T/C",compound 0.03 µM,0.96% [middle of 4 runs]
same,"viability, T/C",compound 0.0949 µM,0.88% [middle of 4 runs]
same,"viability, T/C",compound 0.3 µM,0.94% [middle of 4 runs]
same,IC50,curve of compound,1.62 nM [middle of 4 runs]
